Where two headings read alike, the source gives them in different places.
Experiments:
male C57Bl/6N mice = assay: In vivo functional response to muscle injury (eccentric contraction-induced muscle fatigue); set-up: species or system mouse; details: FIG. 1
Text: (§1) Under anesthesia, the right hind limb of a mouse is restrained at the knee and the foot attached to a motorized footplate/force transducer. Needle electrodes are inserted into the upper limb, either side of the sciatic nerve and a current sufficient to elicit a maximal muscle contraction is applied. Muscle tension is produced by moving the footplate to lengthen the plantarflexor muscles while the limb is under maximal stimulation. This is repeated 60 times to fatigue the muscles of the lower limb. Anesthesia, limb immobilization and limb stimulation are then repeated at regular intervals to measure maximal isometric force in the recovering limb. 7 to 9 animals are tested for each test condition.

mdx mice = assay: Functional repair following limb muscle injury in mdx mice (FIG. 2); assay type: in vivo
[1] = molecular target: T1, haematopoietic prostaglandin D synthase (H-PGDS) (Homo sapiens, UniProt O60760); assay: H-PGDS RapidFire High Throughput Mass Spectrometry Assay; assay type: biochemical
T1 construct: Full length human H-PGDS cDNA (Invitrogen Ultimate ORF IOH13026) was amplified by PCR; made in house; host or cells: E. coli BL21 (DE3*), vector pET22b+
Method in brief: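 PGH2 (~10 μM burst) generated in situ from arachidonic acid by FLAG-tagged human COX-2 (Sf9-expressed), then converted to PGD2 by full-length human His-tagged H-PGDS from E. coli. PGD2 and PGF2α (substrate surrogate) quantified by RapidFire SPE-triple quadrupole MS; percent conversion calculated.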

male C57BL/mdx mice = assay: In vivo functional response to eccentric contraction-induced muscle damage in mdx mice (Duchenne Muscular Dystrophy model); set-up: species or system mouse; details: 30 mg/kg BID; 8 month-old male C57BL/mdx mice; FIG. 2
Text: as §1
The force deficit and recovery kinetics following eccentric contraction-induced muscle damage was also evaluated in middle-aged (8 month-old) male C57BL/mdx mice, a preclinical model of Duchenne Muscular Dystrophy. In this dystrophin-null background, the protocol elicited a greater functional deficit (˜75%) and a protracted recovery interval, as shown in the eccentric vehicle controls.

[2] = H-PGDS RapidFire MS assay, mean pIC50, read-out: Potency Range (mean pIC50) (converted)

T1 sequence (O60760 whole entry): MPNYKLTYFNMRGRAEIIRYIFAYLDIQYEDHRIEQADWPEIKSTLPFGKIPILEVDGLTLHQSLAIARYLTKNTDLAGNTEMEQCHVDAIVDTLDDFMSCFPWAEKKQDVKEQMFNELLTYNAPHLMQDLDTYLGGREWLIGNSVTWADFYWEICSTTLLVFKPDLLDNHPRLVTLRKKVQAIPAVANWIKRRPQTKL

SMILES	IC50 [1, 2] [nM]	other results
CC(C)(O)[C@H]1CC[C@H](NC(=O)c2cnc3cc(OC(F)F)ccc3c2)CC1 [Example 6, 7-(Difluoromethoxy)-N-((trans)-4-(2-hydroxypropan-2-yl)cyclohexyl)quinoline-3-carboxamide]		kinetics of recovery of maximal isometric force (male C57Bl/6N mice; PO 1, 3 and 10 mg/kg BID beginning 10 min prior to eccentric contraction challenge): acceleration in the kinetics of recovery; initial magnitude of the injury (isometric limb force 24-hours following protocol initiation) (male C57Bl/6N mice; PO 3 and 10 mg/kg BID): reduced the initial magnitude of the injury
O=C(N[C@H]1CCNC1=O)c1cnc2cc(OC(F)F)c(F)cc2c1 [Example 48, (S)-7-(Difluoromethoxy)-6-fluoro-N-(2-oxopyrrolidin-3-yl)quinoline-3-carboxamide]	10 to 79.4	protection and acceleration of functional repair dose response curves of PGDS Inhibition (mdx mice): protection and acceleration of functional repair; force deficit at 24-hours (male C57BL/mdx mice): significantly blunted the force deficit at 24-hours; rate and extent of functional recovery (male C57BL/mdx mice): improved both the rate and extent of functional recovery
CC(C)(O)C(=O)N1CCN(NC(=O)c2cnc3cc(OC(F)F)c(Cl)cc3c2)CC1 [Example 224, 6-Chloro-7-(difluoromethoxy)-N-(4-(2-hydroxy-2-methylpropanoyl)piperazin-1-yl)quinoline-3-carboxamide]	10 to 79.4	
C[C@H](N[C@H]1CC[C@H](NC(=O)c2cnc3cc(OC(F)F)c(Br)cc3c2)CC1)C(F)F [Example 159, 6-Bromo-7-(difluoromethoxy)-N-(trans-4-(((S)-1,1-difluoropropan-2-yl)amino)cyclohexyl)quinoline-3-carboxamide]	< 10	
CC1CCN1c1cc2ncc(C(=O)N[C@H]3CCNC3=O)cc2cc1F (mixture of isomers) [Example 171, 6-Fluoro-7-(2-methylazetidin-1-yl)-N—((S)-2-oxopyrrolidin-3-yl)quinoline-3-carboxamide]	10 to 79.4	
Cn1nnnc1N1CCC(NC(=O)c2cnc3cc(C4CC4)c(Cl)cc3c2)CC1 [Example 34, 6-Chloro-7-cyclopropyl-N-(1-(1-methyl-1H-tetrazol-5-yl)piperidin-4-yl)quinoline-3-carboxamide]	< 10	
O=C1CC(NC(=O)c2cnc3cc(OC(F)F)c(F)cc3c2)c2ccccc2N1 (stereo not shown) [Example 54, 7-(Difluoromethoxy)-6-fluoro-N-(2-oxo-1,2,3,4-tetrahydroquinolin-4-yl)quinoline-3-carboxamide]	10 to 79.4	
O=C(Nc1nccs1)c1cnc2cc(OC(F)F)ccc2c1 [Example 10, 7-(Difluoromethoxy)-N-(thiazol-2-yl)quinoline-3-carboxamide]	10 to 79.4	
CCOC(=O)c1cnc(N2CCC(NC(=O)c3cnc4cc(OC(F)F)c(F)cc4c3)CC2)o1 [Example 72, Ethyl 2-(4-(7-(difluoromethoxy)-6-fluoroquinoline-3-carboxamido)piperidin-1-yl)oxazole-5-carboxylate]	10 to 79.4	
CC(NC[C@H]1CC[C@H](NC(=O)c2cnc3cc(OC(F)F)c(F)cc3c2)CC1)C(F)F (mixture of isomers) [Example 75, 7-(Difluoromethoxy)-N-(trans-4-(((1,1-difluoropropan-2-yl)amino)methyl)cyclohexyl)-6-fluoroquinoline-3-carboxamide]	10 to 79.4	
O=C(N[C@H]1CC[C@](O)(C(F)F)CC1)c1cnc2cc(OC(F)F)c(Cl)cc2c1 [Example 233, 6-Chloro-7-(difluoromethoxy)-N-((1s,4s)-4-(difluoromethyl)-4-hydroxycyclohexyl)quinoline-3-carboxamide]	10 to 79.4	
CC(N[C@H]1CC[C@H](NC(=O)c2cnc3cc(OC(F)F)c(Br)cc3c2)CC1)C(F)F (mixture of isomers) [Example 156, 6-Bromo-7-(difluoromethoxy)-N-(trans-4-((1,1-difluoropropan-2-yl)amino)cyclohexyl)quinoline-3-carboxamide]	< 10	
COC(=O)[C@H]1CC[C@H](NC(=O)c2cnc3cc(OC(F)F)c(F)cc3c2)CC1 [Example 86, trans-Methyl 4-(7-(difluoromethoxy)-6-fluoroquinoline-3-carboxamido)cyclohexanecarboxylate]	< 10	
O=C(N[C@H]1CC[C@H](N[C@@H](CO)C(F)(F)F)CC1)c1cnc2cc(OC(F)F)c(Br)cc2c1 [Example 153, 6-Bromo-7-(difluoromethoxy)-N-(trans-4-(((S)-1,1,1-trifluoro-3-hydroxypropan-2-yl)amino)cyclohexyl)quinoline-3-carboxamide]	< 10	
CC1(C)CC(NC(=O)c2cnc3cc(OC(F)F)c(Cl)cc3c2)CCO1 (stereo not shown) [Example 150, 6-Chloro-7-(difluoromethoxy)-N-(2,2-dimethyltetrahydro-2H-pyran-4-yl)quinoline-3-carboxamide]	10 to 79.4	IC50 ([1]; in at least one experimental run, read-out: H-PGDS pIC50 value (converted)): 39.8 nM
O=C(N[C@H]1CC[C@@](O)(C(F)(F)F)CC1)c1cnc2cc(OC(F)F)c(Cl)cc2c1 [Example 227, 6-Chloro-7-(difluoromethoxy)-N-((trans)-4-hydroxy-4-(trifluoromethyl)cyclohexyl)quinoline-3-carboxamide]	10 to 79.4	
C[C@H]1CCN1c1cc2ncc(C(=O)N[C@H]3CCNC3=O)cc2cc1F [Example 176, 6-Fluoro-7-((S)-2-methylazetidin-1-yl)-N—((S)-2-oxopyrrolidin-3-yl)quinoline-3-carboxamide]	10 to 79.4	
